Patent US20240389587A1, “COMPOSITIONS AND METHODS FOR CONTROLLING PHYTOPATHOGENIC INFECTIONS” (INSTITUT NATIONAL DE RECHERCHE POUR L'AGRICULTURE, …, priority 2021, published 2024)
pIC50: −log10 of the molar value. Where two headings read alike, the source gives them in different places.

Target: T1, IRE1 (Saccharomyces cerevisiae, UniProt P32361)
T1 construct: endogenous in cells
Test: IRE1 inhibitors screening (inhibition of transcriptional activator HAC1 in yeast)
Assay type: cell-based
Text: A series of natural products were screened for their capacity to inhibit the UPR pathway via the inhibition of IRE1 in an in vitro screening test, based inhibition of the transcriptional activator HAC1 in Saccharomyces cerevisiae (the IRE1 protein is the ‘sole effector of the UPR pathway in fungi).

[1] = in vitro screening, IRE1 activity of less than 80% = retained as IRE1 inhibitor

T1 sequence (P32361 19-1115): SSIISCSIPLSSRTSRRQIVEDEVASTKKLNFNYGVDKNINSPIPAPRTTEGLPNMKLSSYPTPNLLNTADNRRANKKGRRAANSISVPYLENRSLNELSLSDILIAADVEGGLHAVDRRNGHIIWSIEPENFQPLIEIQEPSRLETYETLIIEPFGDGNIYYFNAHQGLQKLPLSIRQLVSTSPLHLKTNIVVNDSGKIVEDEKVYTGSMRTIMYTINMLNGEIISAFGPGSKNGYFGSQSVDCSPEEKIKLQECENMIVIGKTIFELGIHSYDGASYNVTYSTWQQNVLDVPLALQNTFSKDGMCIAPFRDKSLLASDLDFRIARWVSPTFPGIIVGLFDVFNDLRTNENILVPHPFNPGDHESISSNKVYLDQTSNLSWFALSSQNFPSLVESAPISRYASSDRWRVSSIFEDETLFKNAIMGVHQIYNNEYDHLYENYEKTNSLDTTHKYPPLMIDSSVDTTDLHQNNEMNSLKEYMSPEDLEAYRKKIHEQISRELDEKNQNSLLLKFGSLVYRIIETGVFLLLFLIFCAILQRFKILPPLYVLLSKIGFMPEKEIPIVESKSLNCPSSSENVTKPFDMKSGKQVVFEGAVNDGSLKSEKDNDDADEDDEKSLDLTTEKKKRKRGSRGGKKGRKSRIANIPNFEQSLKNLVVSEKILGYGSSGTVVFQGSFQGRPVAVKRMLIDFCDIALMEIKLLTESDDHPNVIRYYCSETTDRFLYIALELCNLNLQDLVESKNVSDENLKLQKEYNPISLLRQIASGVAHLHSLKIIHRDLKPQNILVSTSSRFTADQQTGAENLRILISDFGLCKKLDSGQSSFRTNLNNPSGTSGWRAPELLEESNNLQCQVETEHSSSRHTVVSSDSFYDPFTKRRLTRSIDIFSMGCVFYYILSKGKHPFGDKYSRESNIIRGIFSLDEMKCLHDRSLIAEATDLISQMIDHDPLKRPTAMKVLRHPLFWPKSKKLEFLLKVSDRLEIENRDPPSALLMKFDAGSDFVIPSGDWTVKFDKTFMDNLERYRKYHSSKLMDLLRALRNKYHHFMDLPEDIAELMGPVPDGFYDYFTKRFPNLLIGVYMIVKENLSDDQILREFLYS

| Compound | μ (% activation) ± σ [1] [%] | also measured |
| --- | --- | --- |
| 2-Deprenyl-rheediaxanthone B | 97.3 ± 4.2 | – |
| 5,6-O-dimethyl-2-deprenylrheediaxanthone | 100.3 ± 1.6 | – |
| COc1cc2c(cc1OC)C1Cc3ccc(OC)c(OC)c3C(=O)N1CC2 (racemic) [(±)-8-Oxotetrahydropalmatine] | 99.6 ± 2.8 | – |
| O=C1c2c(O)cc(O)cc2O[C@@H](c2ccc(O)cc2)[C@@H]1c1c(O)cc(O)c2c(=O)cc(-c3ccc(O)cc3)oc12 (racemic) [(±)-Volkensiflavone] | 95.8 ± 0.5 | – |
| COc1cc2c(cc1O)C1Cc3cc(OC)c(OC)cc3C(C2)N1C (single isomer, unassigned; (-)) [(−)-Norargemonine] | – | μ (% activation) ± σ: 101.7 ± 3.6% |
| O=c1c2ccc(O)c(O)c2oc2cc(O)cc(O)c12 [1,3,5,6-tétra-hydroxy-xanthone] | 103.9 ± 0.7 | – |
| CC(C)=CCc1c(O)cc2oc3ccc(O)cc3c(=O)c2c1O [1,3,7-trihydroxy-2-prenylxanthone] | 89.7 ± 0.6 | – |
| COc1c(O)ccc2oc3ccccc3c(=O)c12 [1-methoxy-2-hydroxy-xanthone] | 97.9 ± 3.6 | – |
| O=c1c2cc(O)ccc2oc2c(O)c(O)c(O)c(O)c12 [2,5,6,7,8-Pentahydroxyxanthone] | 102.3 ± 0.7 | – |
| COc1c(OC)c(O)c2c(=O)c(O)c(-c3ccccc3)oc2c1OC [3,5-dihydroxy-6,7,8-trimethoxyflavone] | 98.3 ± 2.4 | – |
| Cc1cc(=O)oc2cc(O)cc(O)c12 [5,7-dihydroxy-4-methyl coumarin] | 104.0 ± 1.4 | – |
| COc1c(O)ccc2c(=O)c3c(O)cc4c(c3oc12)C(C)(C)C(C)O4 (stereo not shown) [5-O-methyl-2-deprenylrheediaxanthone B] | 91.6 ± 3.3 | – |
| CC(C)=CCc1c(O)c(CC=C(C)C)c2oc3c(O)cccc3c(=O)c2c1O [8-deoxygartanin] | 96.6 ± 5.7 | – |
| COc1c(O)cc2oc3cc4c(c(O)c3c(=O)c2c1CC=C(C)C)C=CC(C)(C)O4 [9-hydroxycalabaxanthone] | 103.5 ± 2.8 | – |
| C[C@H](C/C=C/C(C)(C)O)[C@@H]1CC[C@]2(C)C3=C(CC[C@@]12C)[C@@]1(C)CC[C@H](O)C(C)(C)C1CC3 (stereo partly drawn) [(20R,23E)-Eupha-8,23-diene-3b,25-diol] | 100.6 ± 2.5 | – |
| O=c1cc(-c2ccc(O)c(-c3c(O)cc(O)c4c(=O)cc(-c5ccc(O)cc5)oc34)c2)oc2cc(O)cc(O)c12 [Amentoflavone] | 101.8 ± 2.3 | – |
| O=C(/C=C/c1ccc(O)c(O)c1)OCc1ccccc1 [Benzyl caffeate] | 104.6 ± 4.8 | – |
| CC(C)=CCC/C(C)=C/COc1c2ccoc2cc2oc(=O)ccc12 [Bergamotine] | 103.5 ± 1.6 | – |
| CC(C)=CCc1c(O)cc2oc3ccc4c(c3c(=O)c2c1O)C=CC(C)(C)O4 [Calothwaitesixanthone] | 104.6 ± 1.4 | – |
| C=CC(C)(C)c1c2c(c(O)c3c(=O)c4cccc(O)c4oc13)C=CC(C)(C)O2 [Caloxanthone C] | 104.2 ± 2.8 | – |
| COc1ccc2cc1Oc1ccc(cc1)C[C@H]1c3c(cc4c(c3Oc3cc5c(cc3OC)CCN(C)[C@@H]5C2)OCO4)CCN1C [Cepharantine] | 102.2 ± 4.0 | – |
| COc1ccc2c(c[n+](C)c3c4cc5c(cc4ccc23)OCO5)c1OC [Chelerythrine] | 103.2 ± 3.6 | – |
| O=c1cc(-c2ccccc2)oc2cc(O)cc(O)c12 [Chrysine] | – | μ (% activation) ± σ: 91.7 ± 1.4% |
| O=C(/C=C/c1ccc(O)c(O)c1)OC/C=C/c1ccccc1 [Cinnamyl caffeate, [(E)-3-phenylprop-2-enyl] (E)-3-(3,4-dihydroxyphenyl)prop-2-enoate] | 73.4 ± 1.7 | IRE1 inhibition (in words): inhibit IRE1 in a micromolar scale; pIC50 (read-out: IRE1 IC50): 4.67 |
| COc1ccc2c(c1O)Oc1c(O)ccc3c1[C@H](C2)N(C)CC3 [Claviculine] | 100.3 ± 2.5 | – |
| COc1cc(/C=C/C(=O)CC(=O)/C=C/c2ccc(O)c(OC)c2)ccc1O [Curcumine] | 177.3 ± 10.3 | – |
